Among the data in patent US4352809A, “Method of producing alpha2 antagonism” (Smithkline Corporation, priority 1981, dated 1982) are Kb values, retold here.

The assay addresses T1, alpha2 -adrenoceptor (Cavia porcellus, UniProt Q60474).
T1 construct: The left atrium is removed, dissected free of extraneous tissue and mounted in a 2 ml. superfusion chamber; from tissue; host or cells: isolated left atrium of male guinea pig (prejunctional receptors on sympathetic nerve terminals)
T1 sequence (Q60474 1-464): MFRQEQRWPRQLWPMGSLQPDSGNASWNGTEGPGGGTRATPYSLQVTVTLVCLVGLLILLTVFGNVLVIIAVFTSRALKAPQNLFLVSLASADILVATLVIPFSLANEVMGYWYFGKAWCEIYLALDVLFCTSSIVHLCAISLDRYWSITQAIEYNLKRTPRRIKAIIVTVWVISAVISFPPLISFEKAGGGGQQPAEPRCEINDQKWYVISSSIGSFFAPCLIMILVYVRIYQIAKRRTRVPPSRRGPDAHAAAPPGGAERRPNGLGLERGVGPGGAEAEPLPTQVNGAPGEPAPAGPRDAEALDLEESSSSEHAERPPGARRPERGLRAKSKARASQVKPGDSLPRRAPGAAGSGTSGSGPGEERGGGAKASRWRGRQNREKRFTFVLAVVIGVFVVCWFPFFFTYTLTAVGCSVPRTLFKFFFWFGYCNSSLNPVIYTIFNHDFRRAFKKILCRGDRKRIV
In words: prejunctional alpha2-antagonist activity, isolated superfused guinea pig left atrium (shift of the clonidine concentration-response curve). The format is cell-based. The following applies: isolated perfused guinea pig left atrium; antagonist concentration that shifts the clonidine log concentration-response curve to the right by a factor of 2; read-out: KB (receptor dissociation constant of the antagonist). As for the experimental part:
Briefly, the heart is removed from a pentobarbitol-anesthetized male guinea pig. The left atrium is removed, dissected free of extraneous tissue and mounted in a 2 ml. superfusion chamber. The tissue is paced at 60 pulse/minute and the sympathetic nerves excited at 6 minute intervals by field stimulation. The response to nerve stimulation is measured as the difference in contractile force between the basal contraction and peak contraction following a nerve stimulation. A concentration-response curve for clonidine (alpha2 -agonist) is prepared by administering increasing concentration of clonidine following each successive stimulation. The tissue is then superfused with the alpha2 -antagonist to be tested for thirty minutes and the clonidine concentration-effect curve was repeated in the presence of antagonist. The receptor dissociation constant of the antagonist (KB) is defined as the antagonist concentration required to shift the log concentration-response curve of the agonist to the right by a factor of 2.

Where a name gives a salt, the structure may show the parent alone.

By Kb is commonly meant the equilibrium dissociation constant of an antagonist, usually derived from a functional assay. `c1cc2snnc2c2c1CCNC2` [[1,2,3]thiadiazolo[5,4-h]-6,7,8,9-tetrahydroisoquinoline hydrochloride]: the Kb is 220 nM.
